target: human MER (528-end) (Homo sapiens (Human), UniProt Q12866); assay: HTRF Kinase Activity Biochemical Assay (KinEASE-TK); conditions: 10 uM ATP
Procedure, shortened: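 Recombinant human MER (528-end) phosphorylated biotin-TK peptide substrate, 1 h at room temperature. Reaction stopped with detection buffer containing 0.375 nM Eu3+-cryptate anti-TK antibody and 0.062 uM streptavidin-XL665, 1 h further. Activity taken as HTRF ratio 665/620 nm ×10,000, 340 nm excitation.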

Chain of human MER (528-end) (Q12866 528-999 limits assumed): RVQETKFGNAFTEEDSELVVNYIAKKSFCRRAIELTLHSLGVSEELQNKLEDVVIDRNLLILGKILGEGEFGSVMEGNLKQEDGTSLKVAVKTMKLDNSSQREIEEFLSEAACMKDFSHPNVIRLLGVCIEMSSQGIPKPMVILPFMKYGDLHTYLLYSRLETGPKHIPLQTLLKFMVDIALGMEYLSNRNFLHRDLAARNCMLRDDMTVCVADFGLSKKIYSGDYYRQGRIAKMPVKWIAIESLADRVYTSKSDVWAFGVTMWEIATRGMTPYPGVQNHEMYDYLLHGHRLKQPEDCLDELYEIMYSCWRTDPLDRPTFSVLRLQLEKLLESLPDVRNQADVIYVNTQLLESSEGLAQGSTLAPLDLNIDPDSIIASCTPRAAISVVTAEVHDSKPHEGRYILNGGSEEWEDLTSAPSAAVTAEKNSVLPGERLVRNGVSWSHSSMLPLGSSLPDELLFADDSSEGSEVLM

Row | SMILES | IC50 [nM]
1 | Cn1cc(-c2cnc(N)c(C(=O)N[C@@H]3CCN(C(=O)Oc4ccc5cc(O)ccc5c4)C3)c2)cn1 [Example 104, 6-hydroxynaphthalen-2-yl (R)-3-(2-amino-5-(1-methyl-1H-pyrazol-4-yl)nicotinamido)pyrrolidine-1-carboxylate] | 100 to 1000
2 | Cn1cc(-c2cnc(N)c(C(=O)N[C@@H]3CCN(C(=O)O[C@H]4C[C@H]5CC[C@@H]4C5)C3)c2)cn1 [Example 105, (1R,2S,4S)-bicyclo[2.2.1]heptan-2-yl (R)-3-(2-amino-5-(1-methyl-1H-pyrazol-4-yl)nicotinamido)pyrrolidine-1-carboxylate] | > 1000
3 | Cn1cc(-c2cnc(N)c(C(=O)N[C@@H]3CCN(C(=O)OC4CCCC4)C3)c2)cn1 [Example 106, cyclopentyl (R)-3-(2-amino-5-(1-methyl-1H-pyrazol-4-yl)nicotinamido)pyrrolidine-1-carboxylate] | > 1000
4 | Cn1cc(-c2cnc(N)c(C(=O)N[C@@H]3CCN(C(=O)OC4CCCCCC4)C3)c2)cn1 [Example 107, cycloheptyl (R)-3-(2-amino-5-(1-methyl-1H-pyrazol-4-yl)nicotinamido)pyrrolidine-1-carboxylate] | > 1000
5 | Cn1cc(-c2cnc(N)c(C(=O)N[C@@H]3CCN(C(=O)O[C@H]4C[C@@H]5CC[C@H]4C5)C3)c2)cn1 [Example 109, (1S,2S,4R)-bicyclo[2.2.1]heptan-2-yl (R)-3-(2-amino-5-(1-methyl-1H-pyrazol-4-yl)nicotinamido)pyrrolidine-1-carboxylate] | > 1000
6 | Cn1cc(-c2cnc(N)c(C(=O)N[C@@H]3CCN(C(=O)Oc4cccc(Oc5ccccc5)c4)C3)c2)cn1 [Example 110, 3-phenoxyphenyl (R)-3-(2-amino-5-(1-methyl-1H-pyrazol-4-yl)nicotinamido)pyrrolidine-1-carboxylate] | 100 to 1000
7 | Cn1cc(-c2cnc(N)c(C(=O)N[C@@H]3CCN(C(=O)Oc4ccc(Oc5ccc([N+](=O)[O-])cc5)cc4)C3)c2)cn1 [Example 111, 4-(4-nitrophenoxy)phenyl (R)-3-(2-amino-5-(1-methyl-1H-pyrazol-4-yl)nicotinamido)pyrrolidine-1-carboxylate] | > 1000
8 | Cn1cc(-c2cnc(N)c(C(=O)N[C@@H]3CCN(C(=O)Oc4ccc(Oc5ccc(N)cc5)cc4)C3)c2)cn1 [Example 112, 4-(4-aminophenoxy)phenyl (R)-3-(2-amino-5-(1-methyl-1H-pyrazol-4-yl)nicotinamido)pyrrolidine-1-carboxylate] | 100 to 1000
9 | Cn1cc(-c2cnc(N)c(C(=O)N[C@@H]3CCN(C(=O)Oc4ccc(Oc5ccc(CO)cc5)cc4)C3)c2)cn1 [Example 114, 4-(4-(hydroxymethyl)phenoxy)phenyl (R)-3-(2-amino-5-(1-methyl-1H-pyrazol-4-yl)nicotinamido)pyrrolidine-1-carboxylate] | 100 to 1000
10 | CN(C)Cc1ccc(Oc2ccc(OC(=O)N3CC[C@@H](NC(=O)c4cc(-c5cnn(C)c5)cnc4N)C3)cc2)cc1 [Example 115, 4-(4-((dimethylamino)methyl)phenoxy)phenyl (R)-3-(2-amino-5-(1-methyl-1H-pyrazol-4-yl)nicotinamido)pyrrolidine-1-carboxylate] | 100 to 1000
11 | Cn1cc(-c2cnc(N)c(C(=O)N[C@@H]3CCN(C(=O)Oc4cc(Cl)cc(Cl)c4)C3)c2)cn1 [Example 116, 3,5-dichlorophenyl (R)-3-(2-amino-5-(1-methyl-1H-pyrazol-4-yl)nicotinamido)pyrrolidine-1-carboxylate] | 100 to 1000
12 | CN1CCC(n2cc(-c3cnc(N)c(C(=O)N[C@@H]4CCN(C(=O)Oc5ccccc5)C4)c3)cn2)CC1 [Example 119, phenyl (R)-3-(2-amino-5-(1-(1-methylpiperidin-4-yl)-1H-pyrazol-4-yl)nicotinamido)pyrrolidine-1-carboxylate] | > 1000
13 | Cn1cc(-c2cnc(N)c(C(=O)N[C@@H]3CCN(C(=O)OC4CCC(c5ccccc5)CC4)C3)c2)cn1 (stereo partly drawn) [Example 125, 4-phenylcyclohexyl (R)-3-(2-amino-5-(1-methyl-1H-pyrazol-4-yl)nicotinamido)pyrrolidine-1-carboxylate] | > 1000
14 | CN(C(=O)c1cc(-c2cnn(C)c2)cnc1N)[C@@H]1CCN(C(=O)Oc2cccc(-c3ccccc3)c2)C1 [Example 130, [1,1′-biphenyl]-3-yl (R)-3-(2-amino-N-methyl-5-(1-methyl-1H-pyrazol-4-yl)nicotinamido)pyrrolidine-1-carboxylate] | > 1000
15 | Cn1cc(-c2cnc(N)c(C(=O)N[C@@H]3CCN(c4nc5ccccc5[nH]4)C3)c2)cn1 [Example 133, (R)—N-(1-(1H-benzo[d]imidazol-2-yl)pyrrolidin-3-yl)-2-amino-5-(1-methyl-1H-pyrazol-4-yl)nicotinamide] | > 1000
16 | Cn1cc(-c2cnc(N)c(C(=O)N[C@@H]3CCN(c4ccccn4)C3)c2)cn1 [Example 135, (R)-2-amino-5-(1-methyl-1H-pyrazol-4-yl)-N-(1-(pyridin-2-yl)pyrrolidin-3-yl)nicotinamide] | > 1000
17 | Nc1ncc(-c2cnn(C3CCNCC3)c2)cc1C(=O)N[C@@H]1CCN(C(=O)Oc2cccc(-c3ccccc3)c2)C1 [Example 147, [1,1′-biphenyl]-3-yl (R)-3-(2-amino-5-(1-(piperidin-4-yl)-1H-pyrazol-4-yl)nicotinamido)pyrrolidine-1-carboxylate] | 10 to 100

Further lines, results first:

Row | IC50 [nM] | SMILES
18 | > 1000 | CCc1cnc(N2CC[C@@H](NC(=O)c3cc(-c4cnn(C)c4)cnc3N)C2)nc1 [Example 136, (R)-2-amino-N-(1-(5-ethylpyrimidin-2-yl)pyrrolidin-3-yl)-5-(1-methyl-1H-pyrazol-4-yl)nicotinamide]
19 | > 1000 | Cn1cc(-c2cnc(N)c(C(=O)N[C@@H]3CCN(c4ncc5ccccc5n4)C3)c2)cn1 [Example 137, (R)-2-amino-5-(1-methyl-1H-pyrazol-4-yl)-N-(1-(quinazolin-2-yl)pyrrolidin-3-yl)nicotinamide]
20 | > 1000 | CCOC(=O)c1csc(N2CC[C@@H](NC(=O)c3cc(-c4cnn(C)c4)cnc3N)C2)n1 [Example 139, ethyl (R)-2-(3-(2-amino-5-(1-methyl-1H-pyrazol-4-yl)nicotinamido)pyrrolidin-1-yl)thiazole-4-carboxylate]
21 | 10 to 100 | Nc1ncc(-c2cnn(C3CCNCC3)c2)cc1C(=O)N[C@@H]1CCN(C(=O)Nc2cc(Cl)cc(Cl)c2)C1 [Example 146, (R)-2-amino-N-(1-((3,5-dichlorophenyl)carbamoyl)pyrrolidin-3-yl)-5-(1-(piperidin-4-yl)-1H-pyrazol-4-yl)nicotinamide]
22 | > 1000 | CC(c1ccc(Cl)c(Cl)c1)N1CC[C@@H](NC(=O)c2cc(-c3cnn(C4CCNCC4)c3)cnc2N)C1 (stereo partly drawn) [Example 150, 2-amino-N-((3R)-1-(1-(3,4-dichlorophenyl)ethyl)pyrrolidin-3-yl)-5-(1-(piperidin-4-yl)-1H-pyrazol-4-yl)nicotinamide]
23 | 100 to 1000 | Nc1ncc(-c2cnn(C3CCNCC3)c2)cc1C(=O)NC1CCN(Cc2ccccc2)C1 (stereo not drawn) [Example 152, 2-amino-N-(1-benzylpyrrolidin-3-yl)-5-(1-(piperidin-4-yl)-1H-pyrazol-4-yl)nicotinamide]
24 | 100 to 1000 | Nc1ncc(-c2cnn(C3CCNCC3)c2)cc1C(=O)N[C@@H]1CCN(Cc2ccc(F)cc2)C1 [Example 153, (R)-2-amino-N-(1-(4-fluorobenzyl)pyrrolidin-3-yl)-5-(1-(piperidin-4-yl)-1H-pyrazol-4-yl)nicotinamide]
